From ChEMBL document CHEMBL5506024, “Multitarget μ-Opioid Receptor Agonists─Neuropeptide FF Receptor Antagonists Induce Potent Antinociception with Reduced Adverse Side Effects” (J Med Chem, 2024)
The source made the active and inactive calls. The rule behind the calls is not given here.

Tests used:
Mu-type opioid receptor [1] = target: T1, Mu-type opioid receptor (Homo sapiens, UniProt P35372); experiment: Agonist activity at human MOP expressed in HEK293 cells coexpressing GloSensor-20F assessed as inhibition of forskolin-induced cAMP accumulation; type: functional, cell-based
Mu-type opioid receptor [2] = target: T1, Mu-type opioid receptor; experiment: Agonist activity at human MOP expressed in HEK293 cells coexpressing GloSensor-20F assessed as inhibition of forskolin-induced cAMP accumulation relative to control; type: functional, cell-based; settings: filed as agonist
Mu-type opioid receptor [3] = target: T1, Mu-type opioid receptor; experiment: Agonist activity at human Rluc8-tagged MOP expressed in HEK293 cells coexpressing eYFP-tagged beta-arrestin-2 assessed as beta-arrestin-2 recruitment incubated for 5 mins by luminometer analysis; type: functional, cell-based; settings: read-out: EC50
Mu-type opioid receptor [4] = target: T1, Mu-type opioid receptor; experiment: Agonist activity at human Rluc8-tagged MOP expressed in HEK293 cells coexpressing eYFP-tagged beta-arrestin-2 assessed as beta-arrestin-2 recruitment incubated for 5 mins by luminometer analysis relative to control; type: functional, cell-based
[5] = Induction of naltrexone-precipitated withdrawal syndrome in sc dosed C57BL/6N mouse assessed as diarrhea administered for 8 days followed by naltrexone addition on day 9 after 2 hrs post last dose and measured after 30 mins; type: toxicity, organism-based; settings: in vivo, 216.5 h, time 12990 min
[6] = target: T2, Neuropeptide FF receptor 1 (Homo sapiens, UniProt Q9GZQ6); experiment: Displacement of [125I]-1DMeNPFF from human NPFFR1 expressed in CHO cell membrane at 0.5 uM incubated for 1 hr by Topcount counting method relative to control; type: cell membranes
[7] = target: T2, Neuropeptide FF receptor 1; experiment: Antagonist activity at human NPFFR1 expressed in CHO cell membrane assessed as inhibition of NPVF induced cAMP response at 5 uM incubated for 1 hr by Topcount counting method relative to control; type: functional, cell membranes; parameters: scale not given: the % may be the effect or the level left
[8] = target: T3, Neuropeptide FF receptor 2 (Homo sapiens, UniProt Q9Y5X5); experiment: Displacement of [125I]-1DMeNPFF from human NPFFR2 expressed in CHO cell membrane at 0.05 uM incubated for 1 hr by Topcount counting method relative to control; type: cell membranes; settings: filed as antagonist
[9] = target: T3, Neuropeptide FF receptor 2; experiment: Antagonist activity at human NPFFR2 expressed in CHO cell membrane assessed as inhibition of NPVF induced cAMP response at 5 uM incubated for 1 hr by Topcount counting method relative to control; type: functional, cell membranes; parameters: scale not given: the % may be the effect or the level left; settings: filed as antagonist
[10] = target: T2, Neuropeptide FF receptor 1; experiment: Displacement of [125I]-1DMeNPFF from human NPFFR1 expressed in CHO cell membrane incubated for 1 hr by Topcount counting method; type: cell membranes
[11] = target: T2, Neuropeptide FF receptor 1; experiment: Antagonist potency at human NPFFR1 expressed in CHO cell membrane assessed as inhibition of NPVF induced cAMP response incubated for 1 hr by Topcount counting method; type: functional, cell membranes; settings: read-out: pA2 (converted)
[12] = target: T3, Neuropeptide FF receptor 2; experiment: Displacement of [125I]-1DMeNPFF from human NPFFR2 expressed in CHO cell membrane incubated for 1 hr by Topcount counting method; type: cell membranes
[13] = target: T3, Neuropeptide FF receptor 2; experiment: Antagonist potency at human NPFFR2 expressed in CHO cell membrane assessed as inhibition of NPVF induced cAMP response incubated for 1 hr by Topcount counting method; type: functional, cell membranes; settings: read-out: pA2 (converted)
[14] = target: Delta-type opioid receptor (Homo sapiens) (UniProt P41143); experiment: Agonist activity at human DOP expressed in HEK293 cells assessed as inhibition of forskolin-induced cAMP accumulation; type: functional, cell-based; settings: filed as agonist
[15] = target: T4, Kappa-type opioid receptor (Homo sapiens, UniProt P41145); experiment: Antagonist activity at human KOR expressed in HEK293 cells assessed as forskolin-induced cAMP accumulation in presence of IBMX; type: functional, cell-based; settings: read-out: pA2 (converted)
[16] = target: Nociceptin receptor (Homo sapiens) (UniProt P41146); experiment: Antagonist activity at human NOR expressed in HEK293 cells assessed as forskolin-induced cAMP accumulation in presence of IBMX; type: functional, cell-based; settings: filed as antagonist
[17] = target: T5, Prolactin-releasing peptide receptor (Homo sapiens) (UniProt P49683); experiment: Agonist activity at human GPR10 expressed in CHO cells assessed as intracellular calcium release upto 10 uM by Fluo-4 AM dye based calcium mobilization assay; type: functional, cell-based
T5 sequence (whole entry): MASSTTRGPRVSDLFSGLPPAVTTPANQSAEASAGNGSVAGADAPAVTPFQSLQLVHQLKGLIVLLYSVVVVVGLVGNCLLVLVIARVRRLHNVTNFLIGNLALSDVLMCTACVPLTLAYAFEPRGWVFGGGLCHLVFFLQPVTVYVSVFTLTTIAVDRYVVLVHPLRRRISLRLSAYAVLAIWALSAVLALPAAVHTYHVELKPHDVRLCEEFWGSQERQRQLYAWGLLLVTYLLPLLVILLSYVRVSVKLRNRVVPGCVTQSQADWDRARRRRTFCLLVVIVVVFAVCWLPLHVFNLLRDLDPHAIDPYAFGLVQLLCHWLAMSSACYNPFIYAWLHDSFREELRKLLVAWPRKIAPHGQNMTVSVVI

[18] = target: KiSS-1 receptor (Homo sapiens) (UniProt Q969F8); experiment: Agonist activity at human GPR54 expressed in CHO cells assessed as intracellular calcium release upto 10 uM by Fluo-4 AM dye based calcium mobilization assay; type: functional, cell-based
[19] = target: T6, Pyroglutamylated RF-amide peptide receptor (Homo sapiens) (UniProt Q96P65); experiment: Agonist activity at human GPR103 expressed in CHO cells assessed as intracellular calcium release upto 10 uM by Fluo-4 AM dye based calcium mobilization assay; type: functional, cell-based
T6 sequence (whole entry): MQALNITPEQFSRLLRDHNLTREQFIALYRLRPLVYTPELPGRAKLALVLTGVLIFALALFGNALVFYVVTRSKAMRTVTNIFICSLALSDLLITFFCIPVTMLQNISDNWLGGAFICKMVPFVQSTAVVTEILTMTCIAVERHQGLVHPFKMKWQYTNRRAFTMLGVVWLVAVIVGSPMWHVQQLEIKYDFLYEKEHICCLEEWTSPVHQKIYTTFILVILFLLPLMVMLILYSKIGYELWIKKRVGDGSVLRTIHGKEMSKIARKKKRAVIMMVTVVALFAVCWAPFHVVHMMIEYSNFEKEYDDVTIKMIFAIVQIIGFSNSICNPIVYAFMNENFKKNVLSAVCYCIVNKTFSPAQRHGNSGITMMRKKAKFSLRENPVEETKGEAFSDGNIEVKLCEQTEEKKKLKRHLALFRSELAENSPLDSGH

[20] = target: T5, Prolactin-releasing peptide receptor (Homo sapiens); experiment: Antagonist activity at human GPR10 expressed in CHO cells assessed as intracellular calcium release upto 10 uM by Fluo-4 AM dye based calcium mobilization assay; type: functional, cell-based
[21] = target: KiSS-1 receptor (Homo sapiens) (UniProt Q969F8); experiment: Antagonist activity at human GPR54 expressed in CHO cells assessed as intracellular calcium release upto 10 uM by Fluo-4 AM dye based calcium mobilization assay; type: functional, cell-based
[22] = target: T6, Pyroglutamylated RF-amide peptide receptor (Homo sapiens); experiment: Antagonist activity at human GPR103 expressed in CHO cells assessed as intracellular calcium release upto 10 uM by Fluo-4 AM dye based calcium mobilization assay; type: functional, cell-based
[23] = Cmax in mouse at 10 mg/kg, sc measured upto 24 hrs by LC-MS/MS analysis; type: ADME, organism-based; settings: in vivo
[24] = Tmax in mouse at 10 mg/kg, sc measured upto 24 hrs by LC-MS/MS analysis; type: ADME, organism-based; settings: in vivo
[25] = Half life in mouse at 10 mg/kg, sc measured upto 24 hrs by LC-MS/MS analysis; type: ADME, organism-based; settings: in vivo
[26] = Drug concentration in mouse plasma at 10 mg/kg, sc measured after 2 hrs by LC-MS/MS analysis; type: ADME, organism-based
Mus musculus [27] = experiment: Antinociceptive activity in mouse at 2.5 to 10 mg/kg, sc measured after 6 hrs by tail immersion test; type: functional, organism-based; settings: dose 2.5-10 mg/kg
Mus musculus [28] = experiment: Antinociceptive activity in mouse at 4.2 umol/kg, sc administered chronically and measured on day 1; type: functional, organism-based; settings: dose 4.2 µmol/kg
Mus musculus [29] = experiment: Antinociceptive activity in mouse at 4.2 umol/kg, sc administered chronically and measured on day 8; type: functional, organism-based; settings: dose 4.2 µmol/kg
Mus musculus [30] = experiment: Antinociceptive activity in mouse at 4.2 umol/kg, sc administered daily and measured on day 1 and 8; type: functional, organism-based; settings: dose 4.2 µmol/kg
[31] = Induction of naltrexone-precipitated withdrawal syndrome in sc dosed C57BL/6N mouse assessed as paw tremor administered for 8 days followed by naltrexone addition on day 9 after 2 hrs post last dose and measured after 30 mins; type: toxicity, organism-based; settings: in vivo, 216.5 h, time 12990 min
[32] = Induction of naltrexone-precipitated withdrawal syndrome in sc dosed C57BL/6N mouse assessed as wet dog shake counts administered for 8 days followed by naltrexone addition on day 9 after 2 hrs post last dose and measured after 30 mins; type: toxicity, organism-based; settings: in vivo, 216.5 h, time 12990 min
[33] = Induction of naltrexone-precipitated withdrawal syndrome in sc dosed C57BL/6N mouse assessed as high jumping score administered for 8 days followed by naltrexone addition on day 9 after 2 hrs post last dose and measured after 30 mins; type: toxicity, organism-based; settings: in vivo, 216.5 h, time 12990 min
[34] = Induction of motor coordination impairment in C57BL/6 mouse at 12 mg/kg, sc by rotarod assay; type: toxicity, organism-based; settings: in vivo
[35] = Toxicity in C57BL/6N mouse assessed as induction of respiratory depression by measuring decrease in pulmonary rate at 4 to 36 mg/kg, sc by plethysmography; type: organism-based; settings: in vivo, dose 4-36 mg/kg
[36] = target: T4, Kappa-type opioid receptor; experiment: Partial agonist activity at human KOR expressed in HEK293 cells assessed as forskolin-induced cAMP accumulation in presence of IBMX; type: functional, cell-based; settings: filed as partial agonist
Mus musculus [37] = experiment: Antinociceptive activity in mouse at 2.5 to 10 mg/kg, sc measured after 24 hrs by tail immersion test; type: functional, organism-based; settings: dose 2.5-10 mg/kg
[38] = Induction of motor coordination impairment in C57BL/6 mouse at 10.5 mg/kg, sc by rotarod assay; type: toxicity, organism-based; settings: in vivo
[39] = Toxicity in C57BL/6N mouse assessed as induction of respiratory depression by measuring decrease in pulmonary rate at 3.2 to 31.8 mg/kg, sc by plethysmography; type: organism-based; settings: in vivo, dose 3.2-31.8 mg/kg

Chain of KiSS-1 receptor (Homo sapiens) (Q969F8 whole entry): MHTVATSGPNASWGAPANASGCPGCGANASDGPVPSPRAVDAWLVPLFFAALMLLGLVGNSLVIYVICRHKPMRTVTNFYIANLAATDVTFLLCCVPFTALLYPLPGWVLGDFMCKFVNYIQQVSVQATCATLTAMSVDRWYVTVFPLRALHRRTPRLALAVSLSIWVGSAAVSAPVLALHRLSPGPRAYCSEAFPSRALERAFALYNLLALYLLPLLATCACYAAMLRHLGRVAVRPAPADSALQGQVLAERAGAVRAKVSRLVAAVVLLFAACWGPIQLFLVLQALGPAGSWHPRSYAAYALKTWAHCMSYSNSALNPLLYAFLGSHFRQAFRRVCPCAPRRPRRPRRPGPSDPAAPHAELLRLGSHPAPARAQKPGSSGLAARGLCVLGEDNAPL
T1 sequence (P35372 whole entry): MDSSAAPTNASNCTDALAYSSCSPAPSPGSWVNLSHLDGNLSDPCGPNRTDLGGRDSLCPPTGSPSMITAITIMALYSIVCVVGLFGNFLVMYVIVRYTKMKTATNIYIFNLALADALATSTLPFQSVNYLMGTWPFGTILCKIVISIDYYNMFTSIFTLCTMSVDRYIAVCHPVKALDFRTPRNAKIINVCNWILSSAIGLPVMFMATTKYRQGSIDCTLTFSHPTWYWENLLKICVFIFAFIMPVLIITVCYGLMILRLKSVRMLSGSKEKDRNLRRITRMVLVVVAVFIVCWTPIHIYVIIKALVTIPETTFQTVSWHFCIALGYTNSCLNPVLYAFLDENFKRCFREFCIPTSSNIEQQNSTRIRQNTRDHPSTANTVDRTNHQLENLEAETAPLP
T3 sequence (Q9Y5X5 whole entry): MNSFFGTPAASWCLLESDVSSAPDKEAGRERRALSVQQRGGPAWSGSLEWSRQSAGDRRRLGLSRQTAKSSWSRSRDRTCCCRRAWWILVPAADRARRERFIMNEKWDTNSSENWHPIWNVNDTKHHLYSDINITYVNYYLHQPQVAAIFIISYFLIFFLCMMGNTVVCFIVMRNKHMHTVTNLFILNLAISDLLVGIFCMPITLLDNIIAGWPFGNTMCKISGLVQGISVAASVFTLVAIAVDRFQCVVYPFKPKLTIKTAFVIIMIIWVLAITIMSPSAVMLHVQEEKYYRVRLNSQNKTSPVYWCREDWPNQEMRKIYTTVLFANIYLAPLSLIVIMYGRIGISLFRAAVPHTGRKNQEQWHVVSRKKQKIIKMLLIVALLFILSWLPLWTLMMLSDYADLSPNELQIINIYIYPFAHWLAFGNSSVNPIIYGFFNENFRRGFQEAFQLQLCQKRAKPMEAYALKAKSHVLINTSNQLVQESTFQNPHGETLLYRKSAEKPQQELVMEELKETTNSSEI
T2 sequence (Q9GZQ6 whole entry): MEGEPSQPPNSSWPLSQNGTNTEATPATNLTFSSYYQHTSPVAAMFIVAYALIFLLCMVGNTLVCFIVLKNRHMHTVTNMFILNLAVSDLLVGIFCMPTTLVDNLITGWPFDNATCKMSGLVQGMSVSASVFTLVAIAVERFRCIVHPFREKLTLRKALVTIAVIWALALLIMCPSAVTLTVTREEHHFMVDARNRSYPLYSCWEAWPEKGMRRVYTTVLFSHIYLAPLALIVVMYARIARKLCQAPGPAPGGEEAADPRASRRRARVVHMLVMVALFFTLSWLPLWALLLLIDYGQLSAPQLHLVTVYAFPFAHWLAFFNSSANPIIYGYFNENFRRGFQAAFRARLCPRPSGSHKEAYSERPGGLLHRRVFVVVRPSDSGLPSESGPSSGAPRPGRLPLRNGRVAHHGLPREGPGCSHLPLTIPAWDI
Chain of Nociceptin receptor (Homo sapiens) (P41146 whole entry): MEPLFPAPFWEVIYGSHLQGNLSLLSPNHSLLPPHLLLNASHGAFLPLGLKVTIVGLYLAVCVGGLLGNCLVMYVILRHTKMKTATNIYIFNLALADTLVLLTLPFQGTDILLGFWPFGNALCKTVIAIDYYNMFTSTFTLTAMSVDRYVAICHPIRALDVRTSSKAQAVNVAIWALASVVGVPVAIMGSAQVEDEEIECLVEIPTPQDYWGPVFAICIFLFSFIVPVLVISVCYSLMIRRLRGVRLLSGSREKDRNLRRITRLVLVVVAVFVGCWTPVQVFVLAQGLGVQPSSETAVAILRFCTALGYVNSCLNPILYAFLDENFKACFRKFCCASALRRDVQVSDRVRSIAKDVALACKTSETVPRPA
T4 sequence (P41145 whole entry): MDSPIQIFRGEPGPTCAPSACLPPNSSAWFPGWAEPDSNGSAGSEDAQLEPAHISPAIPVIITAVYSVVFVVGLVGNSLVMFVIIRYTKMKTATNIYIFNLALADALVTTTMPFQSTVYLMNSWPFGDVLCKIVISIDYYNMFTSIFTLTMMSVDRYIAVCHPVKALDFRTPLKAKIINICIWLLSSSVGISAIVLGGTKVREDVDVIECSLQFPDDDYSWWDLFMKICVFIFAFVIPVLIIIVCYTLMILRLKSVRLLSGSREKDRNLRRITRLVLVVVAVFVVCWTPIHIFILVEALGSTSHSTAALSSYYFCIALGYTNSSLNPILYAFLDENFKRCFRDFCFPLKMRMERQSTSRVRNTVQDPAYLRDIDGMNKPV
Chain of Delta-type opioid receptor (Homo sapiens) (P41143 whole entry): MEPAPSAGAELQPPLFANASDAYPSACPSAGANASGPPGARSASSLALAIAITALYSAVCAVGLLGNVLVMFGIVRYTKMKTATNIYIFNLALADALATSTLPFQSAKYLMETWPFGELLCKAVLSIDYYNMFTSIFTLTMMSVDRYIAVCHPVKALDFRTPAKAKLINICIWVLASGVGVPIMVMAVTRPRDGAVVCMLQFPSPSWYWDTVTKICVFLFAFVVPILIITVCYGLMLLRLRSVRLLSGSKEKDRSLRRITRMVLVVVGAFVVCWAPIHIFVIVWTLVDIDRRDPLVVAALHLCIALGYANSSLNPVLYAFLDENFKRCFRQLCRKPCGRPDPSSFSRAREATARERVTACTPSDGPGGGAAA

| Compound | EC50 (Mu-type opioid receptor [1]) [nM] | Emax (Mu-type opioid receptor [2]) [%] | EC50 (Mu-type opioid receptor [3]) [nM] | Emax (Mu-type opioid receptor [4]) [%] | Activity [5] | Activity [8] [%] | Activity [9] [%] | Ki [10] [nM] | Kb [11] [nM] | Ki [12] [nM] | Kb [13] [nM] | Activity [14] | Activity [16] | Activity [17] | Activity [18] | Activity [19] | Activity [20] | Activity [21] | Activity [22] | Cmax [23] [nM] | also measured |
| --- | --- | --- | --- | --- | --- | --- | --- | --- | --- | --- | --- | --- | --- | --- | --- | --- | --- | --- | --- | --- | --- |
| Cc1cc(O)cc(C)c1C[C@H](NC(=N)N)C(=O)N[C@H](CCCNC(=N)N)C(=O)N[C@H]1Cc2ccccc2CN(CCC(=O)N[C@@H](CCCN2CCC(Cc3ccccc3)CC2)C(=O)N[C@@H](Cc2ccccc2)C(N)=O)C1=O | 9.9 | 66 | 119 | 15 | Non-Toxic | 91 | 71 | 75 | 240 | 4.7 | 110 | Active | Active | inactive | inactive | inactive | inactive | inactive | inactive | 887 | Activity ([6]; filed as antagonist): 93%; Activity ([7]; filed as antagonist): 65%; Kb [15]: 0.331 nM; Tmax [24]: 1.67 h; half-life [25]: 3.1 h; concentration at 2 h [26]: 593 nM; Activity (Mus musculus [27]): Active; Activity (Mus musculus [28]): Active; Activity (Mus musculus [29]): inactive; Activity (Mus musculus [30]): Active; Activity [31]: Non-Toxic; Activity [32]: Non-Toxic; Activity [33]: Toxic; Activity [34]: Non-Toxic; Activity [35]: Non-Toxic |
| Cc1cc(O)cc(C)c1C[C@H](N)C(=O)N(C)[C@H](C)C(=O)N[C@H]1Cc2c(ccc3ccccc23)CN(CCC(=O)N[C@@H](CCCN2CCC(Cc3ccccc3)CC2)C(=O)N[C@@H](Cc2ccccc2)C(N)=O)C1=O | 4.5 | 75 | > 4000 | 24 | Non-Toxic | 57 | 83 | 1310 | 2450 | 32 | 45.7 | Active | Active | inactive | inactive | inactive | inactive | inactive | inactive | 805 | Activity [6]: 19%; Activity [7]: 26%; Activity [36]: Active; Tmax [24]: 2.33 h; half-life [25]: 3.3 h; concentration at 2 h [26]: 837 nM; Activity (Mus musculus [27]): Active; Activity (Mus musculus [37]): Active; Activity (Mus musculus [28]): Active; Activity (Mus musculus [29]): inactive; Activity (Mus musculus [30]): Active; Activity [31]: Non-Toxic; Activity [32]: Non-Toxic; Activity [33]: Non-Toxic; Activity [38]: Non-Toxic; Activity [39]: Non-Toxic |
